Measurements reported in ChEMBL document CHEMBL1641575, “Conventional and microwave assisted synthesis of 2-oxo-4-substituted aryl-azetidine derivatives of benzotriazole: a new class of biological compounds” (Bioorg Med Chem Lett, 2011).
Values after ≈ are worked out from the molar mass of the structure shown.

Columns and labels:
[1] = tested on: Mycobacterium tuberculosis; assay: Antitubercular activity against Mycobacterium tuberculosis H37Rv assessed as inhibition of colonies after 30 days by agar microdilution method; type: functional
Staphylococcus aureus = assay: Antibacterial activity against Staphylococcus aureus assessed as inhibition of visible growth after 48 hrs by agar dilution method; type: functional
Escherichia coli = assay: Antibacterial activity against Escherichia coli assessed as inhibition of visible growth after 48 hrs by agar dilution method; type: functional
Streptococcus pneumoniae = assay: Antibacterial activity against Streptococcus pneumoniae assessed as inhibition of visible growth after 48 hrs by agar dilution method; type: functional
Candida albicans = assay: Antifungal activity against Candida albicans assessed as inhibition of visible growth after 48 hrs by agar dilution method; type: functional
Aspergillus fumigatus = assay: Antifungal activity against Aspergillus fumigatus assessed as inhibition of visible growth after 48 hrs by agar dilution method; type: functional
Aspergillus niger = assay: Antifungal activity against Aspergillus niger assessed as inhibition of visible growth after 48 hrs by agar dilution method; type: functional
[2] = Cytotoxicity against african green monkey Vero C1008 cells at 0.01 to 0.1 ug/ml by neutral red uptake assay; type: cell-based; details: chlorocebus sabaeus

Row | SMILES | MIC [1] [µg/mL] | MIC (Staphylococcus aureus) [µg/mL] | MIC (Escherichia coli) [µg/mL] | MIC (Streptococcus pneumoniae) [µg/mL] | MIC (Candida albicans) [µg/mL] | MIC (Aspergillus fumigatus) [µg/mL] | MIC (Aspergillus niger) [µg/mL] | Activity [2]
1 | O=C1C(Cl)C(c2ccccc2Br)N1/N=C/CCn1nnc2ccccc21 (configuration not stated) | > 3.12 | 0.1 (≈ 0.231 µM) | 0.1 (≈ 0.231 µM) | 0.5 (≈ 1.16 µM) | 1 (≈ 2.31 µM) | 0.5 (≈ 1.16 µM) | 0.5 (≈ 1.16 µM) | 
2 | Clc1ccc(COC(Cn2ccnc2)c2ccc(Cl)cc2Cl)c(Cl)c1 (configuration not stated) [MICONAZOLE] |  |  |  |  | 0.1 (≈ 0.24 µM) | 0.1 (≈ 0.24 µM) | 0.1 (≈ 0.24 µM) | 
3 | CC[C@@H](CO)NCCN[C@@H](CC)CO [ETHAMBUTOL] | 1 (≈ 4.89 µM) |  |  |  |  |  |  | 
4 | CN[C@@H]1[C@H](O[C@H]2[C@H](O[C@H]3[C@H](O)[C@@H](O)[C@H](N=C(N)N)[C@@H](O)[C@@H]3N=C(N)N)O[C@@H](C)[C@]2(O)C=O)O[C@@H](CO)[C@H](O)[C@H]1O [STREPTOMYCIN] | 4 (≈ 6.88 µM) |  |  |  |  |  |  | 
5 | O=C1C(Cl)C(c2ccccc2Cl)N1/N=C/CCn1nnc2ccccc21 (configuration not stated) | 3.12 (≈ 8.05 µM) | 0.5 (≈ 1.29 µM) | 0.1 (≈ 0.258 µM) | 0.1 (≈ 0.258 µM) | 1 (≈ 2.58 µM) | 0.5 (≈ 1.29 µM) | 0.5 (≈ 1.29 µM) | 
6 | O=C1C(Cl)C(c2ccc(Cl)cc2)N1/N=C/CCn1nnc2ccccc21 (configuration not stated) | > 3.12 | 0.1 (≈ 0.258 µM) | 0.1 (≈ 0.258 µM) | 0.5 (≈ 1.29 µM) | 0.5 (≈ 1.29 µM) | 0.5 (≈ 1.29 µM) | 1 (≈ 2.58 µM) | 
7 | O=C1C(Cl)C(c2ccc([N+](=O)[O-])cc2)N1/N=C/CCn1nnc2ccccc21 (configuration not stated) | > 1.56 | 0.1 (≈ 0.251 µM) | 0.5 (≈ 1.25 µM) | 0.5 (≈ 1.25 µM) | 0.1 (≈ 0.251 µM) | 0.5 (≈ 1.25 µM) | 0.5 (≈ 1.25 µM) | 
8 | COc1ccc(C2C(Cl)C(=O)N2/N=C/CCn2nnc3ccccc32)cc1 (configuration not stated) | > 12.5 | 1 (≈ 2.61 µM) | 1 (≈ 2.61 µM) | 0.5 (≈ 1.3 µM) | 0.1 (≈ 0.261 µM) | 0.1 (≈ 0.261 µM) | 0.1 (≈ 0.261 µM) | 
9 | O=C1C(Cl)C(c2ccccc2[N+](=O)[O-])N1/N=C/CCn1nnc2ccccc21 (configuration not stated) | > 3.12 | 0.5 (≈ 1.25 µM) | 0.5 (≈ 1.25 µM) | 0.1 (≈ 0.251 µM) | 0.1 (≈ 0.251 µM) | 0.1 (≈ 0.251 µM) | 0.1 (≈ 0.251 µM) | 
10 | O=C1C(Cl)C(c2cccc(Br)c2)N1/N=C/CCn1nnc2ccccc21 (configuration not stated) | 6.25 (≈ 14.4 µM) | 0.1 (≈ 0.231 µM) | 0.1 (≈ 0.231 µM) | 0.1 (≈ 0.231 µM) | 0.5 (≈ 1.16 µM) | 0.1 (≈ 0.231 µM) | 0.1 (≈ 0.231 µM) | 
11 | O=C1C(Cl)C(c2ccccc2)N1/N=C/CCn1nnc2ccccc21 (configuration not stated) | > 12.5 | 1 (≈ 2.83 µM) | 1 (≈ 2.83 µM) | 0.5 (≈ 1.41 µM) | 1 (≈ 2.83 µM) | 1 (≈ 2.83 µM) | 1 (≈ 2.83 µM) | Non-toxic
12 | COc1ccccc1C1C(Cl)C(=O)N1/N=C/CCn1nnc2ccccc21 (configuration not stated) | > 6.25 | 1 (≈ 2.61 µM) | 2 (≈ 5.21 µM) | 0.5 (≈ 1.3 µM) | 0.1 (≈ 0.261 µM) | 0.1 (≈ 0.261 µM) | 0.1 (≈ 0.261 µM) | 
13 | CC1COc2c(N3CCN(C)CC3)c(F)cc3c(=O)c(C(=O)O)cn1c23 (configuration not stated) [OFLOXACIN] |  | 0.1 (≈ 0.277 µM) | 0.1 (≈ 0.277 µM) | 0.1 (≈ 0.277 µM) |  |  |  | 
